Patent US20090169538A1, “Methods of Treating or Preventing Tissue Damage Caused by Increased Blood Flow” (REGENERX BIOPHARMACEUTICALS, INC., priority 2006, published 2009)

Tests used:
PINCH = target: T1, PINCH (Mus musculus, UniProt Q99JW4); experiment: phage display ELISA confirmation and coimmunoprecipitation with PINCH; format: binding
T1 construct: myc or FLAG (co-immunoprecipitation only); made in house; host or cells: T7 phage amplified in E. coli BLT5615 (ELISA); Cos and 10T1/2 cells transfected (co-IP)
Excerpt: To investigate the potential mechanisms through which thymosin β4 might be influencing cell migration and survival events, thymosin β4 interacting proteins were searched. The amino-terminus of […] was fused with affi-gel beads resulting in exposure of the carboxy-terminus that allowed identification of previously unknown interacting proteins but prohibited association with actin. An E9.5-12.5 mouse heart T7 phage cDNA library was synthesized and screened by phage display and thymosin β4-interacting clones were enriched and confirmed by ELISA. PINCH, a LIM domain protein, was most consistently isolated in this screen and interacted with thymosin β4 in the absence of actin (ELISA). PINCH and integrin linked kinase (ILK) interact directly with one another and indirectly with the actin cytoskeleton as part of a larger complex involved in cell-extracellular matrix interactions known as the focal adhesion complex. PINCH and ILK are required for cell motility and for cell survival, in part by promoting phosphorylation of the serine-threonine kinase Akt/protein kinase B, a central kinase in survival and growth signaling pathways. […] The PINCH interaction with thymosin β4 mapped to the fourth and fifth LIM domains of PINCH while the amino terminal ankryin domain of ILK was sufficient for thymosin β4 interaction. […]

myocardial infarction = myocardial infarction by coronary artery ligation, echocardiography and histology; format: in vivo, mice
Description: Because of thymosin β4's effects on survival and migration of cardiomyocytes cultured in vitro and phosphorylation of Akt, it was tested whether thymosin β4 might aid in cardiac repair in vivo after myocardial damage. Myocardial infarctions in fifty-eight adult mice were created by coronary artery ligation and treated half with systemic, intracardiac, or systemic plus intracardiac thymosin β4 immediately after ligation and the other half with PBS. Intracardiac injections were done with collagen (control) or collagen mixed with thymosin β4. All forty-five mice that survived two weeks later were interrogated for cardiac function by random-blind ultrasonagraphy at 2 and 4 weeks after infarction by multiple measurements of cardiac contraction. […] Control cardiac injections were performed with the same collagen vehicle making it unlikely that an endogenous reaction to the injection contributed to the cardiac recovery.
To determine the manner in which thymosin β4 improved cardiac function, multiple serial histologic sections of hearts treated with or without thymosin β4 were examined. […] TUNEL positive cells that were also myocytes were rare in the thymosin β4 group but abundant in the control hearts. […] Thus, the decreased scar volume and preserved function of thymosin β4 treated mice were likely due to early preservation of myocardium after infarction through thymosin β4's effects on survival of cardiomyocytes.
Embryonic or adult cardiac tissue was embedded in paraffin and sections used for immunohistochemistry. […] Adult hearts were sectioned at ten equivalent levels from the base of the heart to the apex. Serial sections were used for trichrome sections and reaction with sarcomeric a-actinin, c-kit, Sca-1, Abcg2, and BrdU antibodies and for TUNEL assay (Intergen Company # S7111).
Myocardial infarction was produced in fifty-eight male C57BL/6J mice at 16 weeks of age (25-30 g) by ligation of the left anterior descending coronary artery as previously described. Twenty-nine of the ligated mice received thymosin β4 treatment immediately following ligation and the remaining twenty-nine received PBS injections. Treatment was given intracardiac with thymosin β4 (200 ng in 10 ul collagen) or with 10 ul of collagen; intraperitoneally with thymosin β4 (150 μg in 300 μl PBS) or with […]; or by both intracardiac and intraperitoneal injections. Intraperitoneal injections were given every three days until mice were sacrificed. Doses were based on previous studies of thymosin β4 biodistribution. Hearts were removed, weighed and fixed for histologic sectioning. Additional mice were operated on in a similar fashion for studies 0.5, 1, 3, 6 and 11 days after ligation.
Echocardiograms to assess systolic function were performed using M-mode and 2-dimensional measurements as described previously. The measurements represented the average of six selected cardiac cycles from at least two separate scans performed in random-blind fashion with papillary muscles used as a point of reference for consistency in level of scan. End diastole was defined as the maximal left ventricle (LV) diastolic dimension and end systole was defined as the peak of posterior wall motion. Single outliers in each group were omitted for statistical analysis. Fractional shortening (FS), a surrogate of systolic function, was calculated from LV dimensions as follows: FS=EDD−ESD/EDD×100%. Ejection fraction (EF) was calculated from two-dimensional images. EDD, end diastolic dimension; ESD, end systolic dimension.
Scar volume was calculated using six sections through the heart of each mouse using Openlab 3.03 software (Improvision) similar to previously described. Percent area of collagen deposition was measured on each section in blinded fashion and averaged for each mouse.

[1] = four weeks after infarction, versus control

T1 sequence (Q99JW4 whole entry): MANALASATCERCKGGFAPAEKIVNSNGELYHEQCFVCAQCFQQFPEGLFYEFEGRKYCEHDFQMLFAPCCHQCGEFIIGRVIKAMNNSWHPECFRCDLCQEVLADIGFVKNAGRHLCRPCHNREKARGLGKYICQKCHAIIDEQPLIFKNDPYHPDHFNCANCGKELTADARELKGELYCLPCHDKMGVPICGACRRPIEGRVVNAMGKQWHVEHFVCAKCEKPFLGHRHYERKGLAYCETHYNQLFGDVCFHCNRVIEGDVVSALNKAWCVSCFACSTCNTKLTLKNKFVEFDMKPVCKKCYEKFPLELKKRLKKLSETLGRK

thymosin β4
interaction with PINCH in the absence of actin (ELISA) (PINCH; phage display clones, ELISA): interacted | co-precipitation with PINCH (PINCH; plasmids transfected in cultured cells): co-precipitated | cardiac dilation after infarction (EDD and ESD) (myocardial infarction; EDD and ESD significantly higher in control group): decreased cardiac dilation | degree of improvement, systemic intraperitoneal versus local intracardiac administration (myocardial infarction; echocardiography): not statistically different | mean fractional shortening of left ventricle (myocardial infarction; four weeks after infarction, n=23, 95% confidence interval, p<0.0001, control 23.2): 37.2+/−1.8% | mean ejection fraction (myocardial infarction; four weeks after infarction, n=23, 95% confidence interval, p<0.0001, control 28.2): 57.7+/−3.2% | improvement in cardiac fractional shortening (myocardial infarction; [1]): greater than 60% | improvement in ejection fraction (myocardial infarction; [1]): > 100% | scar volume (myocardial infarction; six levels of sections through left ventricle, subset of mice, p<0.05): significant reduction | left ventricle fractional shortening (myocardial infarction; three days after infarction, intracardiac treatment, n=4, 95% confidence interval, p<0.02, controls 28.8): 39.2+/−2.34% | ejection fraction (myocardial infarction; three days after infarction, intracardiac treatment, p<0.02, controls 44.7): 64.2+/−6.69% | size of scar (trichrome stain) (myocardial infarction; three levels of section, all treated mice): reduced | cell death by TUNEL assay in cardiomyocytes (myocardial infarction; twenty-four hours after ligation): striking decrease
